According to US10980809B2, “Urea-substituted aromatic ring-linked dioxane-quinazoline and -linked dioxane-quinoline compounds, preparation method therefor and use thereof” (BEIJING SCITECH-MQ PHARMACEUTICALS LIMITED, priority 2017, dated 2021):

Key:
[1] = test system: HuH7 liver cancer cell line; test: Cell survival assay (CCK-8), HuH7; format: cell-based; conditions: Homo sapiens, Huh-7, HuH7 cells, 72 h incubation
Experimental: (§1) Biological Example 3. Cell Survival Assay for Small Molecule Compounds
(§2) The specific procedure was carried out as follows:
(§3) 1. 600 μL of trypsin was added to a T75 cell culture flask, it was digested in a 37° C. incubator for about 1 min, then 5 mL of DMEM complete medium was added, which was blowed evenly, transferred to a 15 mL centrifuge tube, and centrifuged at 1000 rpm for 4 min;
(§4) 2. The supernatant was discarded, 5 mL of DMEM complete medium was added, which was blowed evenly, and then mixed with 10 μL of cell suspension and 10 μL of 0.4% trypan blue, and reading was recorded using a cell counter;
(§5) 3. Cells of […] different cell lines (MHCC97H, HuH7, HepG2, A549, 8505C) were seeded in 96-well plates at a cell density of 6000 cells/80 μL of complete medium/well, and cultured overnight. Only sterile water was added in the outer 36 wells of the 96-well plates, and the remaining inside 60 wells were used for cell experiments and controls;
(§6) 4. Dilution of compounds: a total of 10 concentrations of the compounds were obtained using a 3-fold dilution from the starting concentration of 10 mM.
(§7) 5. 20 μL of different compounds in different concentrations were added to each corresponding well, and the remaining wells were added with 20 μL of complete medium, the plate was shaked, and the concentration of DMSO in each well is 0.25%.
(§8) 6. After incubation for 72 h, 10 μL of CCK-8 reagent was added to each well, and cultured at 37° C. for 1-2 h; the OD value was read at 450 nm.
(§9) 7. Cell Viability (%)=[(As−Ab)/(Ac−Ab)]*100% • As: Experimental well (medium containing cells, CCK-8, compound) • Ac: Control well (medium containing cells, CCK-8) • Ab: Blank well (medium without cell and compound, CCK-8)
(§10) Table (3) lists the determination results of the activity of representative compounds of the present disclosure against various cancer cells, wherein MHCC97H, HuH7, and HepG2 are liver cancer cell lines, A549 is a lung cancer cell line, and 8505C is a thyroid cancer cell line.

[2] = test system: MHCC97H liver cancer cell line; test: Cell survival assay (CCK-8), MHCC97H; format: cell-based; conditions: Homo sapiens, MHCC97H cells, 72 h incubation
Experimental: as §1, §2, §3, §4, §5, §6, §7, §8, §9, §10

C-RAF = C-RAF (Homo sapiens (Human), UniProt P04049); test: Test of small molecule compounds for inhibiting the activity of C-RAF kinase (ADP-Glo)
[3] = test system: A549 lung cancer cell line; test: Cell survival assay (CCK-8), A549; format: cell-based; conditions: Homo sapiens, A549 cells, 72 h incubation
Experimental: as §1, §2, §3, §4, §5, §6, §7, §8, §9, §10

VEGFR-2 kinase = VEGFR-2 kinase (Homo sapiens (Human), UniProt P35968); test: Test of small molecule compounds for inhibiting the activity of VEGFR-2 kinase; format: biochemical; conditions: class symbols A-D
Procedure, shortened: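 Kinase pre-incubated with diluted compounds for 30 min at room temperature, then substrate/ATP mix added and reaction run 60 min at room temperature in the dark […]. Signal read on a plate reader.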

[4] = test system: 8505C thyroid cancer cell line; test: Cell survival assay (CCK-8), 8505C; format: cell-based; conditions: Homo sapiens, 8505C cells, 72 h incubation
Experimental: as §1, §2, §3, §4, §5, §6, §7, §8, §9, §10

[5] = test system: HepG2 liver cancer cell line; test: Cell survival assay (CCK-8), HepG2; format: cell-based; conditions: Homo sapiens, HepG2 cells, 72 h incubation
Experimental: as §1, §2, §3, §4, §5, §6, §7, §8, §9, §10

B-RAF = B-RAF (Homo sapiens (Human), UniProt P15056); test: Test of small molecule compounds for inhibiting the activity of B-RAF kinase (ADP-Glo)
Sequence of B-RAF (P15056 whole entry): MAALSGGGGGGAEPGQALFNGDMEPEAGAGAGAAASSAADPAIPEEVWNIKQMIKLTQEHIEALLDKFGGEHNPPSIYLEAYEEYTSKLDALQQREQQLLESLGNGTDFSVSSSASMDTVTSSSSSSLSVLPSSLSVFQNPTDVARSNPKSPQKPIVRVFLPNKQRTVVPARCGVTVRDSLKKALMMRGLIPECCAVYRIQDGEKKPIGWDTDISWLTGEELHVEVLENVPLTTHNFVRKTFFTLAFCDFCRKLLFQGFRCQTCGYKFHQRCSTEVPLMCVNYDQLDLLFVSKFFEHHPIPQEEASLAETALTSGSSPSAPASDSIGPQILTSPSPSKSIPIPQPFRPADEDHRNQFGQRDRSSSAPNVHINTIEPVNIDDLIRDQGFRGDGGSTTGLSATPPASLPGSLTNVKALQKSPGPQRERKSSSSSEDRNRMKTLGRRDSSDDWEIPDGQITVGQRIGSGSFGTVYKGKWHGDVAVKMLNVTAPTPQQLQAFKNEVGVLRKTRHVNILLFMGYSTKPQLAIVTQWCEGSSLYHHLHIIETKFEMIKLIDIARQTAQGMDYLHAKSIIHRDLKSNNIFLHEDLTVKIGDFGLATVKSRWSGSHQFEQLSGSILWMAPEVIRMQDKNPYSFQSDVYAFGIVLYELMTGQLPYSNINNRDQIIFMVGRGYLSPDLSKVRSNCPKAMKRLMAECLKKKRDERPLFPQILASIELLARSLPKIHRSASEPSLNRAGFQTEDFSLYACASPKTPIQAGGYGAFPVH

Sequence of VEGFR-2 kinase (P35968 20-1356): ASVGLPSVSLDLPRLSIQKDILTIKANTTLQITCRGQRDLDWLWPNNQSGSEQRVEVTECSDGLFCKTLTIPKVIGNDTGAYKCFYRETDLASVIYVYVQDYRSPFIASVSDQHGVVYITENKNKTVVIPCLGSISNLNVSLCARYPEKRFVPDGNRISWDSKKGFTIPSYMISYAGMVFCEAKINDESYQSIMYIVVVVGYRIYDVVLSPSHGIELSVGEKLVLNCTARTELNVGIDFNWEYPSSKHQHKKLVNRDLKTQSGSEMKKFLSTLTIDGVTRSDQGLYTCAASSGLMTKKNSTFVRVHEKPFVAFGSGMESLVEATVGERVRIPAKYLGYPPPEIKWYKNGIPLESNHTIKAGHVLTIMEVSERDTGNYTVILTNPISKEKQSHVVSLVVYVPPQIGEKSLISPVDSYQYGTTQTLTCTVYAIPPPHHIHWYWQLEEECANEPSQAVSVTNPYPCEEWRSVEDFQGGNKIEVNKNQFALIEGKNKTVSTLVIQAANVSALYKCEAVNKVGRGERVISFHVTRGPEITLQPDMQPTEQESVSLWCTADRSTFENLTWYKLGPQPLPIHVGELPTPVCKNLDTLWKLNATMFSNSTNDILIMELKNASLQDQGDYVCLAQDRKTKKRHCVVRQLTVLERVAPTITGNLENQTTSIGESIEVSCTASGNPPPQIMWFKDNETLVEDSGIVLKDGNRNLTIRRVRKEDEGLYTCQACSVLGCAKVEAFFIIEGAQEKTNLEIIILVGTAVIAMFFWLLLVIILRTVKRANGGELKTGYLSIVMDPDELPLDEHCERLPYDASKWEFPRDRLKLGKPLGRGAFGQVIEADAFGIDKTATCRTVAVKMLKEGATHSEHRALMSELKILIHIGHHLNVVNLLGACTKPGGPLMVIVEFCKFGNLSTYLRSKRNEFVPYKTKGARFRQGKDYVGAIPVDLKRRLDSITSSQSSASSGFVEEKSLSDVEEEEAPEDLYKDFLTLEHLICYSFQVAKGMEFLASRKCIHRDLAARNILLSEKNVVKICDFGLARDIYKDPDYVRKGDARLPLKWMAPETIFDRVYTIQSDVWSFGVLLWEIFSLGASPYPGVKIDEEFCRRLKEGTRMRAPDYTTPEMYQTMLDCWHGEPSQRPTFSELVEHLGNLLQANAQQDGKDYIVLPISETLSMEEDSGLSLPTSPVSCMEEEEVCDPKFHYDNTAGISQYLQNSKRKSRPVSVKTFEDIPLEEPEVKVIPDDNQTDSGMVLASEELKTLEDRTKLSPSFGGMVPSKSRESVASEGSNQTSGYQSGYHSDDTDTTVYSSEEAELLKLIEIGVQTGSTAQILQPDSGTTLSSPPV
Sequence of C-RAF (P04049 whole entry): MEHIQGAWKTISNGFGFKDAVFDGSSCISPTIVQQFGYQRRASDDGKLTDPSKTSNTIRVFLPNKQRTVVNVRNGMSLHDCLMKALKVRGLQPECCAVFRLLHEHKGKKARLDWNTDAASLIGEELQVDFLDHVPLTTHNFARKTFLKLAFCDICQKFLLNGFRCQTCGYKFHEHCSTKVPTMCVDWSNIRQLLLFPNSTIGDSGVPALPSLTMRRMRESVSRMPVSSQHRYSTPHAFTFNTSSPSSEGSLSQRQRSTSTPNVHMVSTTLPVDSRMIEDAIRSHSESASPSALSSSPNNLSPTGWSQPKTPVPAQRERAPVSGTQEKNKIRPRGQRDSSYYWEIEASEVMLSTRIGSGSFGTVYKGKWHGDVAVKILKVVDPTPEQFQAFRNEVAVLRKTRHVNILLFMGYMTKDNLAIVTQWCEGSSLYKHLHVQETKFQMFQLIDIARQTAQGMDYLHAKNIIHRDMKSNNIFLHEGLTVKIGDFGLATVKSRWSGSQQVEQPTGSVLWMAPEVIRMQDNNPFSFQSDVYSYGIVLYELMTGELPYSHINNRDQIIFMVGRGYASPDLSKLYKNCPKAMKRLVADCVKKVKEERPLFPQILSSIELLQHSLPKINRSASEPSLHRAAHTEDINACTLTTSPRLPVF

Structure (SMILES) | IC50 [1] | IC50 [2] | IC50 (C-RAF) | IC50 [3] | IC50 (VEGFR-2 kinase) | IC50 [4] | IC50 [5] | IC50 (B-RAF)
COc1cc2ncnc(Oc3ccc(NC(=O)Nc4cc(C(F)(F)F)ccc4F)cc3)c2c2c1OCCO2 [Example 20, 1-(2-fluoro-5-(trifluoromethyl)phenyl)-3-(4-((5-methoxy-2,3-dihydro-[1,4]dioxino[2,3-f]quinazolin-10-yl)oxy)phenyl)urea] | 0.856 µM | 1.72 µM | […] | 1.12 µM | < 0.05 µM | 0.0203 µM | 0.302 µM | […]
COCCOc1cc2ncnc(Oc3ccc(NC(=O)Nc4ccc(Cl)c(C(F)(F)F)c4)c(F)c3)c2c2c1OCCO2 [Example 48, 1-(4-chloro-3-(trifluoromethyl)phenyl)-3-(2-fluoro-4-((5-(2-methoxyethoxy)-2,3-dihydro-[1,4]dioxino[2,3-f]quinazolin-10-yl)oxy)phenyl)urea] | 1.27 µM | 1.23 µM | 0.2 to 0.5 µM | 0.59 µM | < 0.05 µM | 0.0219 µM | 0.926 µM | < 0.2 µM
COCCOc1cc2ncnc(Oc3ccc(NC(=O)Nc4ccc(Cl)c(C(F)(F)F)c4)cc3)c2c2c1OCCO2 [Example 46, 1-(4-chloro-3-(trifluoromethyl)phenyl)-3-(4-((5-(2-methoxyethoxy)-2,3-dihydro-[1,4]dioxino[2,3-f]quinazolin-10-yl)oxy)phenyl)urea] | 1.26 µM | > 2.5 µM | 0.5 to 1 µM | 0.428 µM | < 0.05 µM | 0.00857 µM | 2.37 µM | 0.5 to 1 µM
COCCOc1cc2ncnc(Oc3ccc(NC(=O)Nc4cc(C(F)(F)F)ccc4F)cc3)c2c2c1OCCO2 [Example 47, 1-(2-fluoro-5-(trifluoromethyl)phenyl)-3-(4-((5-(2-methoxyethoxy)-2,3-dihydro-[1,4]dioxino[2,3-f]quinazolin-10-yl)oxy)phenyl)urea] | 0.585 µM | 0.714 µM | […] | 0.194 µM | < 0.05 µM | 0.00535 µM | 0.123 µM | […]
COc1cc2ncnc(Oc3ccc(NC(=O)Nc4ccc(Cl)c(C(F)(F)F)c4)cc3)c2c2c1OCCO2 [Example 18, 1-(4-chloro-3-(trifluoromethyl)phenyl)-3-(4-((5-methoxy-2,3-dihydro-[1,4]dioxino[2,3-f]quinazolin-10-yl)oxy)phenyl)urea] | 1.33 µM | > 2.5 µM | 0.2 to 0.5 µM | 1.04 µM | < 0.05 µM | 0.0232 µM | 1.74 µM | 0.2 to 0.5 µM
